Six cell lines from the supplement of paper PMC10307832 can be followed below.

What all share (experiment): relative viability (nuclei count vs DMSO), 5 days (fraction); higher = more cells survive
Compound in the assay “XMD14-99 + Olaparib”: CN1CCN(CC1)C2=CC(=C(C=C2)NC3=NC(=C(S3)C(=O)C4=C(C=CC=C4Cl)Cl)N)OC [XMD14-99] + O=C(c1cc(Cc2n[nH]c(=O)c3ccccc23)ccc1F)N1CCN(C(=O)C2CC2)CC1 [Olaparib] (partner 8 µM)
Put shortly:
(§1)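 Medians of duplicate plates are given as relative viability. That measure is the nuclei count in treated wells divided by the count in vehicle wells. Counts were taken on 4× images of lung cancer cell lines in 1536-well plates, 5 days after pin-tool dosing the day after seeding with one drug alone or a fixed anchor-drug dose plus five library-drug doses (not always all listed) in √10 steps.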

Compound in the assay “AZD1208 + Crizotinib”: N[C@@H]1CCCN(c2c(/C=C3\SC(=O)NC3=O)cccc2-c2ccccc2)C1 [AZD1208] + C[C@@H](Oc1cc(-c2cnn(C3CCNCC3)c2)cnc1N)c1c(Cl)ccc(F)c1Cl [Crizotinib] (partner 1 µM)
Put shortly: as §1

Compound in the assay “AZD1208 + Trametinib”: N[C@@H]1CCCN(c2c(/C=C3\SC(=O)NC3=O)cccc2-c2ccccc2)C1 [AZD1208] + CC(=O)Nc1cccc(-n2c(=O)n(C3CC3)c(=O)c3c(Nc4ccc(I)cc4F)n(C)c(=O)c(C)c32)c1 [Trametinib] (partner 0.02 µM)
An outline of the steps:
as §1

Compound in the assay “AZD1208 + OSI-027”: N[C@@H]1CCCN(c2c(/C=C3\SC(=O)NC3=O)cccc2-c2ccccc2)C1 [AZD1208] + COc1cccc2cc(-c3nc([C@H]4CC[C@H](C(=O)O)CC4)n4ncnc(N)c34)[nH]c12 [OSI-027] (partner 0.5 µM)
Put shortly:
as §1

On to NCI-H3122, for which the relative viability came out at 0.671 with XMD14-99 + Olaparib (first compound 0.08 µM); 0.682 in the assay with XMD14-99 + Olaparib (first compound 0.8 µM); 0.62 with XMD14-99 + Olaparib (first compound 2.53 µM); 0.441 in the assay with XMD14-99 + Olaparib (first compound 8 µM); 0.264 in the assay with AZD1208 + Crizotinib (first compound 0.08 µM); 0.246 with AZD1208 + Crizotinib (first compound 0.253 µM). Further, the relative viability with AZD1208 + Crizotinib (first compound 0.8 µM) worked out at 0.241; in the assay with AZD1208 + Crizotinib (first compound 2.53 µM), 0.254; with AZD1208 + Crizotinib (first compound 8 µM), 0.285; with AZD1208 + Trametinib (first compound 0.08 µM), 0.201; in the assay with AZD1208 + Trametinib (first compound 0.253 µM), 0.221; with AZD1208 + Trametinib (first compound 0.8 µM), 0.192. The relative viability with AZD1208 + Trametinib (first compound 2.53 µM) was found to be 0.203; with AZD1208 + Trametinib (first compound 8 µM), 0.165; in the assay with AZD1208 + OSI-027 (first compound 0.08 µM) it was 0.842; in the assay with AZD1208 + OSI-027 (first compound 0.253 µM), 0.856; with AZD1208 + OSI-027 (first compound 0.8 µM), 0.768; in the assay with AZD1208 + OSI-027 (first compound 2.53 µM), 0.862. In the assay with AZD1208 + OSI-027 (first compound 8 µM), the relative viability stood at 0.606.
NCI-H441: the relative viability with XMD14-99 + Olaparib (first compound 0.08 µM) was found to be 0.526; with XMD14-99 + Olaparib (first compound 0.8 µM), 0.519; with XMD14-99 + Olaparib (first compound 2.53 µM) it was 0.529; in the assay with XMD14-99 + Olaparib (first compound 8 µM) it was 0.455; with AZD1208 + Crizotinib (first compound 0.08 µM), 0.73; with AZD1208 + Crizotinib (first compound 0.253 µM) it was 0.674. For the same cell line, the relative viability amounted to 0.667 with AZD1208 + Crizotinib (first compound 0.8 µM); 0.526 with AZD1208 + Crizotinib (first compound 2.53 µM); 0.42 with AZD1208 + Crizotinib (first compound 8 µM); 0.515 with AZD1208 + Trametinib (first compound 0.08 µM); 0.547 with AZD1208 + Trametinib (first compound 0.253 µM); 0.327 with AZD1208 + Trametinib (first compound 0.8 µM). Besides, the relative viability with AZD1208 + Trametinib (first compound 2.53 µM) turned out to be 0.405; in the assay with AZD1208 + Trametinib (first compound 8 µM), 0.446; with AZD1208 + OSI-027 (first compound 0.08 µM), 0.518; in the assay with AZD1208 + OSI-027 (first compound 0.253 µM) it was 0.535; in the assay with AZD1208 + OSI-027 (first compound 0.8 µM), 0.396; with AZD1208 + OSI-027 (first compound 2.53 µM), 0.493. For the same cell line, the relative viability with AZD1208 + OSI-027 (first compound 8 µM) was 0.352.
With NCI-H2170, the relative viability with XMD14-99 + Olaparib (first compound 0.08 µM) is 0.543; in the assay with XMD14-99 + Olaparib (first compound 0.8 µM) it was 0.565; with XMD14-99 + Olaparib (first compound 2.53 µM) it was 0.537; with XMD14-99 + Olaparib (first compound 8 µM), 0.466; with AZD1208 + Crizotinib (first compound 0.08 µM), 1.18; with AZD1208 + Crizotinib (first compound 0.253 µM) it was 1.2. The relative viability with AZD1208 + Crizotinib (first compound 0.8 µM) came to 1.01; with AZD1208 + Crizotinib (first compound 2.53 µM), 1.12; in the assay with AZD1208 + Crizotinib (first compound 8 µM) it was 0.836; in the assay with AZD1208 + Trametinib (first compound 0.08 µM) it was 0.966; with AZD1208 + Trametinib (first compound 0.253 µM), 1; in the assay with AZD1208 + Trametinib (first compound 0.8 µM) it was 0.869. For the same cell line, the relative viability came to 0.868 with AZD1208 + Trametinib (first compound 2.53 µM); 0.57 with AZD1208 + Trametinib (first compound 8 µM); 0.751 with AZD1208 + OSI-027 (first compound 0.08 µM); 0.653 with AZD1208 + OSI-027 (first compound 0.253 µM); 0.636 in the assay with AZD1208 + OSI-027 (first compound 0.8 µM); 0.625 with AZD1208 + OSI-027 (first compound 2.53 µM). Moreover, the relative viability in the assay with AZD1208 + OSI-027 (first compound 8 µM) is 0.535.
For NCI-H358, the relative viability in the assay with XMD14-99 + Olaparib (first compound 0.08 µM) is 0.603; with XMD14-99 + Olaparib (first compound 0.8 µM), 0.773; with XMD14-99 + Olaparib (first compound 2.53 µM), 0.585; with XMD14-99 + Olaparib (first compound 8 µM), 0.312; with AZD1208 + Crizotinib (first compound 0.08 µM) it was 0.537; with AZD1208 + Crizotinib (first compound 0.253 µM), 0.559. The relative viability with AZD1208 + Crizotinib (first compound 0.8 µM) is 0.499; in the assay with AZD1208 + Crizotinib (first compound 2.53 µM) it was 0.566; with AZD1208 + Crizotinib (first compound 8 µM), 0.438; with AZD1208 + Trametinib (first compound 0.08 µM), 0.118; in the assay with AZD1208 + Trametinib (first compound 0.253 µM) it was 0.109; in the assay with AZD1208 + Trametinib (first compound 0.8 µM) it was 0.12. Further, the relative viability is 0.12 with AZD1208 + Trametinib (first compound 2.53 µM); 0.102 with AZD1208 + Trametinib (first compound 8 µM); 0.649 in the assay with AZD1208 + OSI-027 (first compound 0.08 µM); 0.738 in the assay with AZD1208 + OSI-027 (first compound 0.253 µM); 0.626 in the assay with AZD1208 + OSI-027 (first compound 0.8 µM); 0.695 in the assay with AZD1208 + OSI-027 (first compound 2.53 µM). Also, the relative viability with AZD1208 + OSI-027 (first compound 8 µM) worked out at 0.472.
As to PC-14, the relative viability was found to be 0.276 in the assay with XMD14-99 + Olaparib (first compound 0.08 µM); 0.248 in the assay with XMD14-99 + Olaparib (first compound 0.8 µM); 0.164 with XMD14-99 + Olaparib (first compound 2.53 µM); 0.0816 in the assay with XMD14-99 + Olaparib (first compound 8 µM); 0.925 in the assay with AZD1208 + Crizotinib (first compound 0.08 µM); 1.02 with AZD1208 + Crizotinib (first compound 0.253 µM). The relative viability amounted to 0.991 in the assay with AZD1208 + Crizotinib (first compound 0.8 µM); 0.923 with AZD1208 + Crizotinib (first compound 2.53 µM); 0.906 with AZD1208 + Crizotinib (first compound 8 µM); 0.681 with AZD1208 + Trametinib (first compound 0.08 µM); 0.704 in the assay with AZD1208 + Trametinib (first compound 0.253 µM); 0.512 with AZD1208 + Trametinib (first compound 0.8 µM). In addition, the relative viability with AZD1208 + Trametinib (first compound 2.53 µM) came out at 0.662; with AZD1208 + Trametinib (first compound 8 µM), 0.524; with AZD1208 + OSI-027 (first compound 0.08 µM), 0.838; with AZD1208 + OSI-027 (first compound 0.253 µM), 0.881; in the assay with AZD1208 + OSI-027 (first compound 0.8 µM), 0.722; in the assay with AZD1208 + OSI-027 (first compound 2.53 µM), 0.586. Moreover, the relative viability in the assay with AZD1208 + OSI-027 (first compound 8 µM) worked out at 0.621.
Take CAL-12T: the relative viability was found to be 0.674 with XMD14-99 + Olaparib (first compound 0.08 µM); 0.785 in the assay with XMD14-99 + Olaparib (first compound 0.8 µM); 0.671 in the assay with XMD14-99 + Olaparib (first compound 2.53 µM); 0.607 with XMD14-99 + Olaparib (first compound 8 µM); 0.745 with AZD1208 + Crizotinib (first compound 0.08 µM); 0.838 with AZD1208 + Crizotinib (first compound 0.253 µM). In addition, the relative viability in the assay with AZD1208 + Crizotinib (first compound 0.8 µM) came to 0.718; in the assay with AZD1208 + Crizotinib (first compound 2.53 µM) it was 0.85; in the assay with AZD1208 + Crizotinib (first compound 8 µM) it was 0.471; with AZD1208 + Trametinib (first compound 0.08 µM), 0.377; with AZD1208 + Trametinib (first compound 0.253 µM), 0.331; with AZD1208 + Trametinib (first compound 0.8 µM), 0.339. In addition, the relative viability stood at 0.332 with AZD1208 + Trametinib (first compound 2.53 µM); 0.251 with AZD1208 + Trametinib (first compound 8 µM); 0.61 with AZD1208 + OSI-027 (first compound 0.08 µM); 0.668 with AZD1208 + OSI-027 (first compound 0.253 µM); 0.583 in the assay with AZD1208 + OSI-027 (first compound 0.8 µM); 0.506 with AZD1208 + OSI-027 (first compound 2.53 µM). In the assay with AZD1208 + OSI-027 (first compound 8 µM), the relative viability came to 0.436.
